Measurements: ChEMBL document CHEMBL1201862, “PubChem BioAssay data set” (2004)
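Briefly, cells in 96-well plates were exposed to five compound concentrations for 48 h, and endpoints were estimated by linear interpolation. GI50 is the concentration that inhibits growth by half.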 Calls of active or inactive are those of the source. Cut-off read from the data, not from the text of the source: active = GI50 up to about 1.1 µM and inactive = higher.

Legend:
Test in all cases: NCI-60 cell line screen, 48 h
NCI/ADR-RES = test system: NCI/ADR-RES
HT-29 = test system: HT-29
ACHN = test system: ACHN
UACC-257 = test system: UACC-257
A549 = test system: A549
DU-145 = test system: DU-145
KM12 = test system: KM12
LOX IMVI = test system: LOX IMVI
U-251 = test system: U-251
NCI-H460 = test system: NCI-H460
OVCAR-3 = test system: OVCAR-3
T47D = test system: T47D
SN12C = test system: SN12C
SK-MEL-5 = test system: SK-MEL-5
SK-MEL-2 = test system: SK-MEL-2
RXF 393 = test system: RXF 393
HOP-62 = test system: HOP-62
EKVX = test system: EKVX
SF-295 = test system: SF-295
HOP-92 = test system: HOP-92

Measured: GI50

C/C=C(\C)C(=O)O[C@@H]1CC(C)(C)CC2C3=CCC4[C@]56CC[C@](O)(OC5)C(C)(C)C6CC[C@@]4(C)C3(C)CC[C@]21C(=O)O (some centres not stated)
inactive: NCI/ADR-RES > 100 µM | HT-29 97.1 µM | ACHN 59.4 µM | UACC-257 > 100 µM | A549 53.3 µM | DU-145 > 100 µM | KM12 82.4 µM | LOX IMVI 25.9 µM | U-251 70.5 µM | NCI-H460 78.2 µM | OVCAR-3 81.7 µM | T47D > 100 µM | SN12C > 100 µM | SK-MEL-5 > 100 µM | SK-MEL-2 > 100 µM | RXF 393 > 100 µM | HOP-62 > 100 µM | EKVX > 100 µM | SF-295 > 100 µM

O=C(c1ccc(Cl)cc1)N(C(=S)OCc1ccccn1)c1ccccc1
inactive: NCI/ADR-RES 39 µM | HT-29 55 µM | ACHN 70.6 µM | UACC-257 82.6 µM | DU-145 58.6 µM | KM12 > 100 µM | LOX IMVI 68.2 µM | U-251 53.6 µM | OVCAR-3 52.7 µM | T47D 29.3 µM | SN12C 51.6 µM | SK-MEL-5 58.9 µM | SK-MEL-2 > 100 µM | RXF 393 23.5 µM | HOP-62 16.6 µM | EKVX 20.6 µM | SF-295 76.6 µM

Cc1ccc(S(=O)(=O)NNC(=O)Nc2cccc(C(F)(F)F)c2)cc1
inactive: NCI/ADR-RES 61.8 µM | HT-29 > 100 µM | ACHN 58.5 µM | UACC-257 57.9 µM | A549 > 100 µM | DU-145 > 100 µM | KM12 57.3 µM | U-251 96.8 µM | NCI-H460 > 100 µM | T47D > 100 µM | HOP-92 > 100 µM | SN12C > 100 µM | SK-MEL-5 33.3 µM | SK-MEL-2 > 100 µM | RXF 393 85.7 µM | HOP-62 > 100 µM | EKVX > 100 µM | SF-295 > 100 µM

CC(=O)c1ccc2c(c1)CC1(C2)Cc2cc3c(c(C(=O)O)c2C1)CCC3 (configuration not stated)
inactive: NCI/ADR-RES 80.5 µM | HT-29 > 100 µM | ACHN 68.1 µM | UACC-257 > 100 µM | A549 37.9 µM | DU-145 > 100 µM | KM12 > 100 µM | LOX IMVI > 100 µM | U-251 55.8 µM | NCI-H460 64.6 µM | OVCAR-3 92.5 µM | T47D 53.5 µM | HOP-92 22.6 µM | SN12C > 100 µM | SK-MEL-5 44.6 µM | RXF 393 > 100 µM | HOP-62 > 100 µM | EKVX > 100 µM | SF-295 > 100 µM

CC1(C)N=c2c(ncn2CCO)=C(C(N)=O)N1
inactive: NCI/ADR-RES > 100 µM | HT-29 > 100 µM | ACHN > 100 µM | UACC-257 > 100 µM | A549 > 100 µM | DU-145 > 100 µM | KM12 > 100 µM | LOX IMVI > 100 µM | U-251 > 100 µM | NCI-H460 > 100 µM | OVCAR-3 > 100 µM | T47D > 100 µM | HOP-92 26.2 µM | SN12C > 100 µM | SK-MEL-5 > 100 µM | RXF 393 > 100 µM | HOP-62 > 100 µM | EKVX > 100 µM | SF-295 > 100 µM

O=C1/C(=N/c2ccc(Nc3ccccc3)cc2)Oc2ccccc21
inactive: NCI/ADR-RES 1.9 µM | HT-29 2.2 µM | ACHN 3.18 µM | UACC-257 2.42 µM | A549 3.51 µM | DU-145 8.47 µM | KM12 2.14 µM | LOX IMVI 2.34 µM | U-251 1.69 µM | NCI-H460 5.31 µM | OVCAR-3 1.97 µM | T47D 3 µM | SN12C 2.02 µM | SK-MEL-5 4.68 µM | SK-MEL-2 3.3 µM | RXF 393 2.51 µM | HOP-62 5.57 µM | EKVX 5.31 µM | SF-295 3.35 µM

O=C(c1ccc(Cl)cc1Cl)N(C(=O)N1CCC(c2ccccc2)CC1)c1ccccc1
inactive: NCI/ADR-RES > 100 µM | HT-29 > 100 µM | ACHN > 100 µM | UACC-257 63.8 µM | A549 > 100 µM | DU-145 > 100 µM | KM12 > 100 µM | LOX IMVI > 100 µM | U-251 > 100 µM | NCI-H460 > 100 µM | OVCAR-3 > 100 µM | T47D 53.7 µM | HOP-92 > 100 µM | SN12C > 100 µM | SK-MEL-5 37.3 µM | SK-MEL-2 > 100 µM | HOP-62 > 100 µM | EKVX 86.9 µM | SF-295 > 100 µM

CC1(C)C(OC(=O)c2ccccc2)C[C@]23CCC[C@](C)(C[C@@H](O)C12)C3 (some centres not stated)
inactive: NCI/ADR-RES 14.5 µM | HT-29 16.1 µM | ACHN 17.9 µM | UACC-257 20.4 µM | A549 16.3 µM | DU-145 21.2 µM | KM12 16.7 µM | LOX IMVI 17 µM | U-251 > 10 µM | NCI-H460 16.2 µM | OVCAR-3 30.6 µM | T47D 19.9 µM | HOP-92 16 µM | SN12C 18.4 µM | SK-MEL-5 13.1 µM | SK-MEL-2 17.6 µM | HOP-62 24 µM | EKVX 19.9 µM | SF-295 13.9 µM

Cc1cnc2nc(-c3ccc(Cl)cc3)cc(O)c2c1
inactive: NCI/ADR-RES 6.1 µM | HT-29 3.27 µM | ACHN 6.21 µM | UACC-257 11.5 µM | A549 5.05 µM | DU-145 11.1 µM | KM12 3.76 µM | LOX IMVI 4.63 µM | U-251 3.9 µM | NCI-H460 3.47 µM | OVCAR-3 2.95 µM | T47D 43 µM | HOP-92 2.32 µM | SN12C 6.31 µM | SK-MEL-5 2.49 µM | SK-MEL-2 5.82 µM | HOP-62 5.86 µM | EKVX 18.5 µM | SF-295 3.55 µM

CC1CC(C)C(O)C(C2CC(CC(=O)NC3CCCCC3)CC(=O)O2)C1 (configuration not stated)
inactive: NCI/ADR-RES > 100 µM | HT-29 > 100 µM | ACHN > 100 µM | UACC-257 > 100 µM | A549 > 100 µM | DU-145 > 100 µM | KM12 > 100 µM | LOX IMVI > 100 µM | U-251 > 100 µM | NCI-H460 > 100 µM | OVCAR-3 > 100 µM | T47D > 100 µM | HOP-92 > 100 µM | SN12C 87.9 µM | SK-MEL-5 > 100 µM | RXF 393 > 100 µM | HOP-62 > 100 µM | EKVX > 100 µM | SF-295 > 100 µM

COc1cc(C2c3cc4c(cc3OC(Nc3ccccc3)C2C)OCO4)cc(OC)c1O (configuration not stated)
inactive: NCI/ADR-RES 2.38 µM | HT-29 3.85 µM | UACC-257 7.73 µM | A549 3.85 µM | DU-145 4.02 µM | KM12 4.41 µM | U-251 3.95 µM | OVCAR-3 4.47 µM | T47D 15.8 µM | HOP-92 16.7 µM | SN12C 4.66 µM | SK-MEL-5 3.08 µM | SK-MEL-2 2.22 µM | RXF 393 4.45 µM | SF-295 4.28 µM
